Test results reported in paper PMC12080252, “Daphnia magna as an Alternative Model for (Simultaneous) Bioaccumulation and Chronic Toxicity Assessment—Controlled Exposure Study Indicates High Hazard of Heterocyclic PAHs” (Environmental Science & Technology, 2025).
“And” between values parts separate entries of the source, which are not always exact repeats. Equal entries are not always repeated.

Assays:
[1] = test system: D. magna; assay: PNEC and risk quotient estimation; set-up: species or system Daphnia magna; details: environmental concentration of surrogate (CRB, DBF, DBT) / PNEC
Description: To ensure a precautionary approach, an AF of 100 was applied, which accounts for interspecies variability and uncertainties in extrapolating laboratory findings to real-world conditions.
Environmental concentration (EC) data are obtained from A CRB, B DBF, and C DBT by choosing the highest
concentration that remains below the solubility limit of the respective NSO-PAH, as described in Reference 24.

[2] = Chronic reproduction toxicity test (OECD 211) with passive dosing; type: in vivo, Daphnia magna; details: Daphnia magna, in vivo, other: waterborne exposure by passive dosing from PDMS disks, 21-day test, read-out: % offspring mortality of total offspring
Summary of the method: (§1)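 D. magna juveniles (<24 h) exposed individually 21 days by passive dosing from PDMS disks, static, 20 °C, 16:8 h light/dark, medium renewed three times weekly, fed daily; water concentrations measured initially and before renewal. Offspring per mother versus controls gave percent inhibition; EC10/EC20/EC50 from four-parameter logistic fit of log10 concentrations (Top 100, Bottom 0).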

[3] = test system: Daphnia magna; assay: as above; type: in vivo; details: for Total #dead offspring per mother (per vessel) / Total #offspring per mother (per vessel) / % inhibition (per vessel): individual vessels; for EC10: 21-day reproduction inhibition; for wet weight of parent daphnids, change relative to control: end of 21-d exposure; for % inhibition, avr. / % inhibition (per vessel): reproduction vs controls
Summary of the method: as §1

SMILES: c1ccc2c(c1)ccc1sc3ccccc3c12 [BNT, benzo[b]naphtho[1,2-d]thiophene]
- RQ (EC/PNEC) [1]: 3333
- mortality at 21 days, 0.07 µg/L ([2]; 0.07 µg/L (Fig. S8)): 1.8%
- mortality at 21 days, 0.25 µg/L ([2]; 0.25 µg/L (Fig. S8)): 11.1%
- mortality at 21 days, 0.38 µg/L ([2]; 0.38 µg/L (Fig. S8)): 11.7%
- mortality at 21 days, 0.81 µg/L ([2]; 0.81 µg/L (Fig. S8)): 14.8%
- mortality at 21 days, 1.94 µg/L ([2]; 1.94 µg/L (Fig. S8)): 14.2%
- mortality at 21 days, 4.63 µg/L ([2]; 4.63 µg/L (Fig. S8)): 20.8%
- mortality at 21 days, 12 µg/L ([2]; 12.00 µg/L (Fig. S8)): 28%
- #average live offspring ([3]; 0.07 µg/L, 21 days): 67
- %offspring mortality ([3]; 0.07 µg/L, 21 days): 1.76%
- #total live offspring ([3]; 0.07 µg/L, 21 days, all vessels without outlier): 334
- Total #dead offspring per mother (per vessel) ([3]; 0.07 µg/L, 21 days): 0 and 2
- #average live offspring ([3]; 0.25 µg/L, 21 days): 67
- %offspring mortality ([3]; 0.25 µg/L, 21 days): 11.09%
- #total live offspring ([3]; 0.25 µg/L, 21 days, all vessels): 401
- Total #dead offspring per mother (per vessel) ([3]; 0.25 µg/L, 21 days): 8 and 14 and 9 and 6 and 5
- #average live offspring ([3]; 0.38 µg/L, 21 days): 62
- %offspring mortality ([3]; 0.38 µg/L, 21 days): 11.71%
- #total live offspring ([3]; 0.38 µg/L, 21 days, all vessels without vessel 2 (X)): 309
- Total #dead offspring per mother (per vessel) ([3]; 0.38 µg/L, 21 days): 9 and 16 and 10 and 5 and 1
- #average live offspring ([3]; 0.81 µg/L, 21 days): 52
- %offspring mortality ([3]; 0.81 µg/L, 21 days): 14.75%
- #total live offspring ([3]; 0.81 µg/L, 21 days, all vessels): 312
- Total #dead offspring per mother (per vessel) ([3]; 0.81 µg/L, 21 days): 10 and 9 and 3 and 24 and 5
- EC10 ([3]; 97.5-2.5% confidence interval in brackets): 0.33 (0.12-0.73) μg L^-1
- EC10 ([3]; confidence interval in brackets): 1.40 (0.49-3.10) nmol L^-1
- growth of parent D. magna (wet weight) ([3]; 21-day test, p-value <0.05): significantly inhibited D. magna growth
- LOEC (lowest observed effect concentration, reproduction inhibition) ([3]; 21 days, p-value <0.05 vs controls): 0.8 μg L^–1
- Total #offspring per mother (per vessel) ([3]; BNT avr. medium concentration 0.25 µg/L (methanol dosing 0.063 g/L), 21 days): 81 and 73 and 58 and 64 and 61
- Total #offspring per mother (per vessel) ([3]; BNT avr. medium concentration 0.38 µg/L (methanol dosing 0.125 g/L), 21 days): 66 and 55 and 82 and 54 and 52
- Total #offspring per mother (per vessel) ([3]; BNT avr. medium concentration 0.81 µg/L (methanol dosing 0.25 g/L), 21 days): 40 and 59 and 60 and 34 and 57 and 62
- EA50 (effective chemical activity) ([3]; EC50/subcooled liquid solubility, eq 1): 0.026 unitless
- Classification according to REACH Annex XIII ([3]; chronic EC10 < 10 μg L^–1): toxic to aquatic life
- CTLBB (critical target lipid body burden) ([3]; derived from chronic EC10 using eq 3): 0.8 μmol g^-1 octanol
- wet weight of parent daphnids, change relative to control ([3]; 0.07 µg/L (Fig. S9)): -11%
- wet weight of parent daphnids, change relative to control ([3]; 0.25 µg/L (Fig. S9)): -19%
- wet weight of parent daphnids, change relative to control ([3]; 0.38 µg/L (Fig. S9)): -17%
- wet weight of parent daphnids, change relative to control ([3]; 0.81 µg/L (Fig. S9)): -3%
- wet weight of parent daphnids, change relative to control ([3]; 1.94 µg/L (Fig. S9)): +13%
- wet weight of parent daphnids, change relative to control ([3]; 4.63 µg/L (Fig. S9)): -24%
- % inhibition, avr. ([3]; 0.07 µg/L, 21 days): 1.3%
- % inhibition (per vessel) ([3]; 0.07 µg/L, 21 days): -3.4% and -4.9% and -1.9% and 15.8% and 1.0%
- % inhibition, avr. ([3]; 0.25 µg/L, 21 days): 1.3%
- % inhibition (per vessel) ([3]; 0.25 µg/L, 21 days): -19.6% and -7.8% and 14.3% and 5.5% and 9.9%
- % inhibition, avr. ([3]; 0.38 µg/L, 21 days): 8.7%
- % inhibition (per vessel) ([3]; 0.38 µg/L, 21 days): 2.5% and 18.8% and -21.1% and 20.2% and 23.2%
- % inhibition, avr. ([3]; 0.81 µg/L, 21 days): 23.2%
- % inhibition (per vessel) ([3]; 0.81 µg/L, 21 days): 40.9% and 12.9% and 11.4% and 49.8% and 15.8% and 8.4%
